Test results: patent US12121540B2, “CBL inhibitors and compositions for use in adoptive cell therapy” (Nurix Therapeutics, Inc., priority 2019, dated 2024)

Tests used:
[1] = tested on: human tumor-infiltrating lymphocytes (TIL); assay: Flow cytometry immunophenotyping of expanded TIL; assay type: cell-based; details: for CD4 TCM CD62L+ CCR7+, percentage of total TIL cell number / CD4 TEM CD62L− CCR7−, percentage of total TIL cell number / CD8 TCM CD62L+ CCR7−, percentage of total TIL cell number / CD8 TEM CD62L− CCR7−, percentage of total TIL cell number: TIL1 population, day 28
Experimental: The plates were placed in a humidified 37° C. incubator with 5% CO2. Half of the medium was replaced every two days after culture initiation. […] Subsequently, half the media was replaced thrice weekly, cultures were split to maintain a cell density of 1×10^6 cells/mL. […] Mitochondrial markers including, Mitotracker, Mitoprobe, and 2-NBDG may also be used to assess differentiation and/or activation of cells.
T lymphocytes were defined based on lineage and differentiation marker expression according to the developmental model (Restifo, Blood, 124:476-477, 2014), as shown in Table 4.

[2] = tested on: human T cells from peripheral blood mononuclear cells; assay: Expansion of CMV pp65 reactive T cells from peripheral blood mononuclear cells; assay type: cell-based; details: for Expansion of T cells from PBMC, total cell number relative to IL-2 alone: day 11
Source text: At day eleven, cells were pooled and counted, and immunophenotyped at day 11 by flow cytometry by measuring expression of lineage (CD4, CD8) and differentiation (including CD45RA, CD45RO, CD95, CCR7, CD62L, TCF1, PD-1, TIM3, LAG3) markers.

OT-1 cells [3] = assay: Re-stimulation of harvested splenocytes with OVA Class I peptide; assay type: cell-based, mouse
Experimental: The expanded OT-1 cells were characterized by FACS analysis and transferred into E.G7-OVA mice, which bear ovalbumin (OVA) expressing tumors. Following in vivo transfer of expanded OT-1 cells, antitumor response was monitored over time and the quality and quantity of immune response was assessed at various time points. Analysis included FACS analysis on blood, tumor, and spleen samples. Analysis also included re-stimulation of splenocytes with OVA Class I peptide to evaluate the multifunctionality of the antigen-specific effector T cells.
Expanded OT-1 cells were assessed from splenocytes 11 days after transfer. Harvested splenocytes were re-stimulated with OVA Class I peptide for 72 hours.
Expanded OT-1 cells were assessed from splenocytes 11 days after transfer. Harvested splenocytes were re-stimulated with OVA Class I peptide for 4 hours.
Expanded OT-1 cells were assessed from splenocytes 11 days after transfer. Harvested splenocytes were re-stimulated with OVA Class I peptide for 24 hours.

OT-1 cells [4] = assay: Tumor re-challenge of long term survivors 149 days after OT-1 transfer; assay type: in vivo, mouse
Source text: To determine whether OT-1 cells are capable of long-term tumor protection, the long term survivors of the above experiment (FIG. 12) were re-challenged with a lethal dose of E.G7-OVA tumor cells 149 days after the initial adoptive transfer of the in vitro expanded OT-1 cells. Re-challenge induced OT-1 cell expansion at the site engrafted with E.G7-OVA tumor cells expressing ovalbumin antigen, thereby effectively controlling tumor growth (FIG. 21).

[5] = tested on: TIL from human ovarian, colon and breast cancer tissues; assay: Phenotype of TIL expanded in 24 well or GREX10 format (flow cytometry); assay type: cell-based
Experimental: Initial studies involved TIL expansion with ovarian and CRC tumor tissues (average about 0.5-0.8 g). These were fragmented into multiple pieces (approximately 2 mm^3 in size), and one fragment was added per 24 well plate. […] The wells were then pooled by treatment and total cell numbers were assessed by flow cytometry. Following TIL expansion the phenotypes of the cells were characterized. They were majority CD45RO+ and CD4+ and CD8+.
TIL directly derived from fresh ovarian and colon cancer tissues (fresh, n=8) obtained after 28 days' ex vivo culture of cancer tissue fragments were analyzed by flow cytometry. FIG. 24 provides FACS data showing percentages of central memory(CD45RO+CCR7+) and effector memory (CD45RO+CCR7−) phenotype among CD8+CD45RO+, respectively. FACS results expressed as the mean±SEM. Statistical significance calculated using two-tailed Wilcoxon signed-rank test (*, p<0.05). The CD8 T cells were further characterized by assessing T cell differentiation phenotypic markers; CCR7 and CD45RO. […] This indicates the expansion of a less differentiated, persistent T cell.
TIL directly derived from fresh ovarian, colon and breast cancer tissues (fresh, n=7) obtained after 14 days' ex vivo culture of cancer tissue fragments were analyzed by flow cytometry. FIG. 26 provides FACS data showing percentages of central memory […] phenotype among CD8+CD45RO+, respectively. FACS results were expressed as the mean±SEM.

[6] = Compound stability in complete RPMI with 10% human serum (mass spectrometry); assay type: physicochemical
Experimental: To assess compound stability, at day 1, 1 μM compound 103 or DMSO was added to complete RMPI containing 10% human serum and stored at either 4° C., 22° C. or 37° C. over an 11 day time period. Concentration of compound 103 was assessed at each indicated timepoint and storage temperature by mass spectrometry. Compound 103 was stable for at least 11 days in RPMI medium (FIG. 33).

[7] = Cbl inhibitor expanded, 4 hours restimulation
[8] = 6000 IU IL-2 + 1 uM compound 103, 28 days, 24 well

Structure (SMILES): C[C@@H]1CN(Cc2cc3c(c(C(F)(F)F)c2)CN(c2cccc(C4(Cc5nncn5C)COC4)c2)C3=O)CCC1(F)F [compound 103]
- CD4 TCM CD62L+ CCR7+, percentage of total TIL cell number ([1]; 0.1 μM Cbl-i): 2.8%
- CD4 TEM CD62L− CCR7−, percentage of total TIL cell number ([1]; 0.1 μM Cbl-i): 67.2%
- CD8 TCM CD62L+ CCR7−, percentage of total TIL cell number ([1]; 0.1 μM Cbl-i): 19.5%
- CD8 TEM CD62L− CCR7−, percentage of total TIL cell number ([1]; 0.1 μM Cbl-i): 37.2%
- CD4 TCM CD62L+ CCR7+, percentage of total TIL cell number ([1]; 1.0 μM Cbl-i): 8.0%
- CD4 TEM CD62L− CCR7−, percentage of total TIL cell number ([1]; 1.0 μM Cbl-i): 24.2%
- CD8 TCM CD62L+ CCR7−, percentage of total TIL cell number ([1]; 1.0 μM Cbl-i): 20.2%
- CD8 TEM CD62L− CCR7−, percentage of total TIL cell number ([1]; 1.0 μM Cbl-i): 15.6%
- CD4 TCM CD62L+ CCR7+, percentage of total TIL cell number ([1]; 10 μM Cbl-i): 15.8%
- CD4 TEM CD62L− CCR7−, percentage of total TIL cell number ([1]; 10 μM Cbl-i): 66.7%
- CD8 TCM CD62L+ CCR7−, percentage of total TIL cell number ([1]; 10 μM Cbl-i): 29.7%
- CD8 TEM CD62L− CCR7−, percentage of total TIL cell number ([1]; 10 μM Cbl-i): 13.2%
- CD4 TCM CD62L+ CCR7+, percentage of total TIL cell number ([1]; IL-2 + 0.1 μM Cbl-i): 12.1%
- CD4 TEM CD62L− CCR7−, percentage of total TIL cell number ([1]; IL-2 + 0.1 μM Cbl-i): 49.3%
- CD8 TCM CD62L+ CCR7−, percentage of total TIL cell number ([1]; IL-2 + 0.1 μM Cbl-i): 20.3%
- CD8 TEM CD62L− CCR7−, percentage of total TIL cell number ([1]; IL-2 + 0.1 μM Cbl-i): 35.5%
- CD4 TCM CD62L+ CCR7+, percentage of total TIL cell number ([1]; IL-2 + 1.0 μM Cbl-i): 15.2%
- CD4 TEM CD62L− CCR7−, percentage of total TIL cell number ([1]; IL-2 + 1.0 μM Cbl-i): 57.3%
- CD8 TCM CD62L+ CCR7−, percentage of total TIL cell number ([1]; IL-2 + 1.0 μM Cbl-i): 16.5%
- CD8 TEM CD62L− CCR7−, percentage of total TIL cell number ([1]; IL-2 + 1.0 μM Cbl-i): 43.3%
- CD4 TCM CD62L+ CCR7+, percentage of total TIL cell number ([1]; IL-2 + 10 μM Cbl-i): 0%
- CD4 TEM CD62L− CCR7−, percentage of total TIL cell number ([1]; IL-2 + 10 μM Cbl-i): 55.8%
- CD8 TCM CD62L+ CCR7−, percentage of total TIL cell number ([1]; IL-2 + 10 μM Cbl-i): 20.5%
- CD8 TEM CD62L− CCR7−, percentage of total TIL cell number ([1]; IL-2 + 10 μM Cbl-i): 35.4%
- Selective expansion of CD8+ T lymphocytes ([1]; malignant ovarian tumor sample, FIG. 7): selectively expand CD8+ T lymphocytes
- Expansion of T cells ([2]; Cbl inhibitor in the absence of IL-2): considerable expansion of T cells
- Expansion of T cells from PBMC, total cell number relative to IL-2 alone ([2]; Donor 1, 0.1 μM Cbl-i): 12%
- Expansion of T cells from PBMC, total cell number relative to IL-2 alone ([2]; Donor 1, 1.0 μM Cbl-i): 12%
- Expansion of T cells from PBMC, total cell number relative to IL-2 alone ([2]; Donor 1, 10 μM Cbl-i): 44%
- Expansion of T cells from PBMC, total cell number relative to IL-2 alone ([2]; Donor 1, IL-2 + 0.1 μM Cbl-i): 614%
- Expansion of T cells from PBMC, total cell number relative to IL-2 alone ([2]; Donor 1, IL-2 + 1.0 μM Cbl-i): 1007%
- Expansion of T cells from PBMC, total cell number relative to IL-2 alone ([2]; Donor 1, IL-2 + 10 μM Cbl-i): 898%
- Expansion of T cells from PBMC, total cell number relative to IL-2 alone ([2]; Donor 2, 0.1 μM Cbl-i): 70%
- Expansion of T cells from PBMC, total cell number relative to IL-2 alone ([2]; Donor 2, 1.0 μM Cbl-i): 95%
- Expansion of T cells from PBMC, total cell number relative to IL-2 alone ([2]; Donor 2, 10 μM Cbl-i): 45%
- Expansion of T cells from PBMC, total cell number relative to IL-2 alone ([2]; Donor 2, IL-2 + 0.1 μM Cbl-i): 2059%
- Expansion of T cells from PBMC, total cell number relative to IL-2 alone ([2]; Donor 2, IL-2 + 1.0 μM Cbl-i): 170%
- Expansion of T cells from PBMC, total cell number relative to IL-2 alone ([2]; Donor 2, IL-2 + 10 μM Cbl-i): 2161%
- Expansion of T cells from PBMC, total cell number relative to IL-2 alone ([2]; Donor 3, 0.1 μM Cbl-i): 175%
- Expansion of T cells from PBMC, total cell number relative to IL-2 alone ([2]; Donor 3, 1.0 μM Cbl-i): 75%
- Expansion of T cells from PBMC, total cell number relative to IL-2 alone ([2]; Donor 3, 10 μM Cbl-i): 38%
- Expansion of T cells from PBMC, total cell number relative to IL-2 alone ([2]; Donor 3, IL-2 + 0.1 μM Cbl-i): 3622%
- Expansion of T cells from PBMC, total cell number relative to IL-2 alone ([2]; Donor 3, IL-2 + 1.0 μM Cbl-i): 2145%
- Expansion of T cells from PBMC, total cell number relative to IL-2 alone ([2]; Donor 3, IL-2 + 10 μM Cbl-i): 1151%
- Exhaustion markers (PD1 and TIM3) in multifunctional cells vs IL-2 alone (OT-1 cells [3]; [7]): lower level of expression of exhaustion markers
- Multifunctionality (IFN-gamma and TNF-alpha double positive cells) vs IL-2 alone (OT-1 cells [3]; [7]): comparable multifunctionality
- IL-2 production upon restimulation (OT-1 cells [3]; Cbl inhibitor expanded, 24 hours restimulation): increased IL-2 production upon restimulation
- Proliferation in response to peptide restimulation vs IL-2 alone (OT-1 cells [3]; Cbl inhibitor expanded, splenocytes 11 days after transfer, 72 hours): superior intrinsic ability to proliferate
- Proliferation in response to peptide restimulation (OT-1 cells [3]; expanded with Cbl inhibitor and IL-2, 72 hours): even greater intrinsic ability to proliferate
- Number of OT-1 cells in blood (in vivo persistence) (OT-1 cells [4]; 149 days after transfer, expanded with Cbl inhibitor or Cbl inhibitor plus IL-2): present at a higher number in the blood
- Recall response after tumor re-challenge vs IL-2 alone (OT-1 cells [4]; OT-1 cells per ml of blood at day 5, Cbl inhibitor or Cbl inhibitor plus IL-2): significantly more rapid recall response
- % CD4 T cells vs IL-2 alone [5, 8]: decrease in the % of CD4
- CD8 T cells vs IL-2 alone [5, 8]: corresponding increase in CD8
- Central memory T cells (CCR7+CD45RO+) among CD8 vs IL-2 alone ([5]; IL-2 + compound 103, 28 days, FIG. 24): significant increase of central memory T cells
- CD8 T cell expansion (% and total numbers) ([5]; IL-2 + compound 103, GREX 10, 14 days): increased expansion of CD8 T cells
- Stability in RPMI medium ([6]; 1 μM, complete RPMI with 10% human serum, 4° C., 22° C. or 37° C.): at least 11 days
- Stability at multiple temperatures ([6]; 4° C.-37° C., 11 day period, FIG. 33): stable
